In patent US5538997A, “2,4-diamino-3-hydroxycarboxylic acid derivatives” (Sandoz Ltd., priority 1993, dated 1996):

How the values were obtained:
[1] = target: recombinant HIV-1-proteinase (Human immunodeficiency virus type 1 group M subtype B, UniProt P04585); test: biochemical
Description: (§1) 1. Assay of peptide cleavage by HIV-proteinase
(§2) Inhibition of HIV-proteinase is measured as described in the literature: A. Richards et al., J. Biol. Chem. 265, 773-7736 (1990) and L. H. Philip et al., Biochem. Biophys. Res. Comun. 171,439-444 (1990). Briefly the peptide H-Lys-Ala-Arg-Val-Leu-Nph-Glu- Ala-Nle-NH2 (where Nph is p-nitrophenylalanine and Nle is norleucine) is used as substrate for recombinant HIV-1- and HIV-2-proteinase. Cleavage occurs between the Leu and Nph residues. The reaction is followed spectrophotometrically by the decrease in extinction at 300 nm which is observed upon cleavage.

cathepsin D = cathepsin D (Homo sapiens, UniProt P07339); test: Inhibition of cathepsin D (specificity); assay type: biochemical
[2] = target: T1, recombinant HIV-2-proteinase (Human immunodeficiency virus type 2 subtype A, UniProt P04584); test: Assay of peptide cleavage by HIV-proteinase (HIV-2); assay type: biochemical; conditions: substrate H-Lys-Ala-Arg-Val-Leu-Nph-Glu-Ala-Nle-NH2
T1 construct: recombinant HIV-1- and HIV-2-proteinase
Description: as §1, §2

renin = target: T2, renin (Homo sapiens, UniProt P00797); test: Inhibition of renin (specificity); assay type: biochemical
T2 sequence (P00797 67-406): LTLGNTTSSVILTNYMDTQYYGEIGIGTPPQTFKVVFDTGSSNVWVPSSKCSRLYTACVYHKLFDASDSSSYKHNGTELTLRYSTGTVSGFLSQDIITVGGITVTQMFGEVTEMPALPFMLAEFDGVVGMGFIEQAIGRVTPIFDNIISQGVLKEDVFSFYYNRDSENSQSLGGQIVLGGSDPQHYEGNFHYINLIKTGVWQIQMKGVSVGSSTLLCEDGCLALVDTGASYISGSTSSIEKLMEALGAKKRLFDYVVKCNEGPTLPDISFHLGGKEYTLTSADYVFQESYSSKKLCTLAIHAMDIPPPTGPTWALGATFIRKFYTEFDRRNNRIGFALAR

[3] = Assay of oral bioavailability in mice; design: species or system Female Balb/c mice; conditions: mouse, in vivo
Description: As is known from the literature, peptide based drugs characteristically show poor oral bioavailability. Since with HIV patients long term medication with proteinase inhibitors is anticipated, it is important that a useful drug be orally bioavailable. This is one of the main obstacles in the development of effective drugs in this peptidic structural class. […] This can be shown e.g. in the following test:
For peroral administration, a solution of the test substance (25 mg/ml) in a suitable solvent such as Cremophor RH40^R /Maisine^R /propylene glycol / ethanol (38/32/15/15) is prepared. Female Balb/c mice are fasted for 24 hours prior to the start, and throughout the experiment water is given ad libitum. At various times following drug administration, blood samples are obtained by sacrificing animals under anaesthesia by cutting the vena jugularis, followed by cervical dislocation. Samples are collected in heparinized tubes (typically 0.4-0.6 ml). For sample analysis solid phase extraction and HPLC are used. Drug concentration in the samples is calculated by least-squares linear regression analysis of the peak area ratio (inhibitor/internal standard) of spiked blood standards versus concentration. From the concentration versus time data, the "Area Under the Curve" (AUC) value is calculated by the trapezoidal rule.

[4] = system: HIV-1 (HTLV IIIB)-induced cytopathic effect in MT4-cells; test: Cellular assay: inhibition of HIV-1-induced cytopathic effect in MT4-cells (MTT); assay type: cell-based; conditions: Human immunodeficiency virus 1, read-out: IC50 in the cellular assay (virus-inhibitory concentration)
Description: Inhibition of the HIV-1 (HTLV IIIB)-induced cytopathic effect is measured in MT4-cells as described in the literature (R. Pauwels et al, J. Virol. Meth. 20 309-321 [1988]). Briefly, an HTLV-1 transformed T4 cell line, MT4, which has been shown previously to be highly permissive to HIV infection, serves as a target cell line. Inhibition of HIV-induced cytopathic effect is used as the end point. The viability of both HIV- and mock-infected cells is assessed spectrophotometrically via the in situ-reduction of 3-(4,5-dimethylthiazol-2-yl)-2,5-diphenyltetrazolium bromide (MTT). The comparison of the effects of various concentrations of the agent on HIV- versus mock-infected cells allows the determination of cytotoxic (TC50) and virus-inhibitory (IC50) concentrations.

T1 sequence (P04584 514-612 limits assumed): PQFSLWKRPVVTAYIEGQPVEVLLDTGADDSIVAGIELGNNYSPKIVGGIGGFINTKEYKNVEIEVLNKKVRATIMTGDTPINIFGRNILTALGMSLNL
cathepsin D, sequence (P07339 65-412): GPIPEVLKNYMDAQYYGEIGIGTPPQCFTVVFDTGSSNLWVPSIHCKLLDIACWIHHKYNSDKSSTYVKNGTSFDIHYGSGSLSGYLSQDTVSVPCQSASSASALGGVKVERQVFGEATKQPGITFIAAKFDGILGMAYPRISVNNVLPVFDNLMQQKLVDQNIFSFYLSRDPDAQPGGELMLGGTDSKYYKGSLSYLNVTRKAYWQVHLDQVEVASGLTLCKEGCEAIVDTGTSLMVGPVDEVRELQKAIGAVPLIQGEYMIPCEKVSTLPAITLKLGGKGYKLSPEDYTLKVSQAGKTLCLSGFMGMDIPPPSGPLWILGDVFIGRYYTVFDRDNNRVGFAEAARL

For `COc1ccc(CNC(C(=O)NC2c3ccccc3CC2O)C(O)C(Cc2ccccc2)NC(=O)C(NC(=O)OCc2ccccc2)C(C)(C)C)cc1` [Example 2, 4(S)-(Benzyloxycarbonyl-L-tert-leucinoy)amino-3(S)-hydroxy-2(R)-(4-methoxybenzylamino)-5-phenyl-pentanoic acid 1 (S)-amino-2(R)-hydroxyindan-amide], the Ki [1] was 0.0095 µM, the “inhibition of endogenous proteinase cathepsin D” value (cathepsin D) was “does not inhibit” and the Ki [2] was 0.05 µM. For the same compound, the “inhibition of endogenous proteinase renin” value (renin) was “does not inhibit”, the oral uptake [3] was “excellent oral uptake” and the IC50 [4] was 0.25 µM.
